Experiments:
[1] = biological target: T1, human α3-β3-γ2L GABAA-receptor subtype (Homo sapiens, UniProt P28472+P34903); assay: Patch clamp (Dynaflow) GABA-mediated current response, HEK-293 cells, α3β3γ2L; type: cell-based; conditions: 1 μM steroid; essentially as in Example 2
T1 construct: expressed in transfected cells
From the text: (§1) In these tests the protocol was optimized to be like the physiological conditions in the synaptic cleft.
(§2) Preparation of cell lines: HEK-293 cells permanently transfected with the human α1-β2-γ2L, α2-β3-γ2S, α3-ββ3-γ2L, α4-β3-δ or α5-β3-γ2L GABAA-receptor subtypes were used. The cell lines permanently expressing a functional human GABAA-receptor was made in following steps. The human GABAA-receptor subunits e.g. α1 (308-1727 NM_000806), β2 (214-1679 NM_000813), γ2L (290-1785 NM_198904), α2, β3, γ2S, α3, α4, δ and α5 including introduced Kozac sequences just before the start codons were subcloned into mammalian expression vectors containing Geneticin, Hygromycin B, and Zeocin resistance, respectively. A HEK-293 cell line stably expressing the three GABAA-receptor subunits was produced by transfection of the subunits, one at a time. The transfection was followed by selection with the appropriate antibiotics, cell separation with the use of subunit specific antibodies and production of single cell colonies. Produced cell lines were analysed with immunocytochemistry for the three GABAA-receptor subunits, followed by selection of a suitable cell line showing, for the GABAA-receptor normal and good reactivity in a patch-clamp analysis (see below) towards GABA and the GAMS THDOC.
(§3) Cell culture: HEK-293 cells, permanently transfected with human α1-β2-γ2L, α2-β3-γ2S, α3-β3-γ2L, α4-β3-δ and α5-β3-γ2L GABAA-receptor subtypes, were seeded at a density of 3×10^4/25 cm^2 in cell binding culture flask. The transfected cells were used for patch-clamp experiments 3 days after seeding. When using the cells for patch-clamp experiments the cells were washed twice with oxygen-bubbled EC-solution (see below). About 5 mL EC was then added and the cells were kept in the incubator for about 15 minutes. After 15 minutes the cells came loose from the bottom of the flask and were separated by carefully sucking couple of times with a Pasteur pipette.
(§4) Dynaflow™ system: Dynaflow™ system with resolve chips was used for all patch-clamp experiments. The resolve chips is made of non-sticky materials. The channel width is 150 μm and the height 50 μm. The well volume is 280 μL. Run time at the flow rate of 26 μL/min is […]. The pump settings were as follow: Omnifix 2 ml syringe with inner diameter of 9.65 mm was used. The syringe pump flow rate of chip was 26 μL/min.
(§5) Steroids and GABA: GABA was dissolved in EC-solution by ultrasound for about 40 minutes to the concentration of 10 mM in room temperature. All steroids were dissolved to the concentration of 6 mM in dimethyl sulfoxide (DMSO). The DMSO concentration was 0.1% in all end-solutions, including the wash solution (EC) and the solution with GABA alone. End-solutions are the solutions added into the wells of the chip.
(§6) Electrophysiology: Patch electrodes were pulled from 1.5 mm O.D., 0.86 mm I.D. borosilicate capillary glass without filament. […] The intracellular solution (IC) comprised of (in mM): 140 Cs-gluconate, 3.0 NaCl, 1.2 MgCl2, 1.0 EGTA, 10 HEPES. pH was adjusted to 7.2 with CsOH. The extracellular (EC) solution used during recordings contained (in mM): 137 NaCl, 5.0 KCl, 1.0 CaCl2), 1.2 MgCl2, 10 HEPES, 10 glucose. pH was adjusted with NaOH to 7.4. After compensating for the liquid junction potential, a steady holding potential of −17 mV was used in all experiments. In physiological conditions the HEK-293 has a resting potential at −40 mV and a low concentration of chloride ions inside the cell. By using the holding potential of-17 mV and the intracellular solution with low chloride ion concentration the chloride ions flux into the cell when the receptors are activated. All experiments were performed at room temperature (21 to 23° C.). The following standard protocol was used for all experiments.
(§7) GABA applications: By using the Dynaflow equipment it is possible to study transfected HEK-293 during almost physiological conditions.

[2] = biological target: T2, GABAA receptor subtype α1β2γ2 (Homo sapiens, UniProt P14867+P47870); assay: Patch clamp THDOC enhancement of GABA response, α1β2γ2; type: cell-based; conditions: 1 μM steroid + THDOC
T2 construct: expressed in transfected cells
From the text: as §1
as §2, with “THDOC. […]” for “THDOC.”

[3] = biological target: T3, human GABAA-receptor subtype α3β3γ2L (Homo sapiens, UniProt P28472+P34903); assay: Patch clamp (Dynaflow) THDOC enhancement of GABA response, HEK-293 cells, α3β3γ2L; type: cell-based; conditions: 1 μM steroid + THDOC
T3 construct: expressed in transfected cells
From the text: as §1, §2, §3, §4, §5, §6, §7

[4] = tested on: Male Wistar rats; assay: Weight increase in growing male rats, experiment 1 (IV injections, 5 days); type: in vivo, rat; conditions: 2 mg/kg IV
Description: (§8) Animals: Male Wistar rats were kept in group cages, with three animals per cage, from delivery and throughout the period of experiments. The individual animals were marked so that they could be identified throughout the experiment duration. The animals weight an average of 152 g upon arrival. A reversed light dark (12:12h) cycle was used with the dark period onset at 0600 hrs. Altogether fifty-six (56) rats were used in this study (experiment 1+2). The animals were delivered from the breeder Taconic (Denmark). The study protocol was approved by the Regional Ethics Committee of Umeå University, Sweden.
(§9) Feeding: Standard chow and water were available ad libitum. A reversed 12-h dark-light cycle with lights off at 10.00 am and lights on at 22.00 pm was used. For identification, the rats were marked with a permanent marker on the tail. To avoid the endogenous allopregnanolone fluctuations that are present in the oestrous cycle of female rats, male rats were chosen (Frye et al. 2000). The animals were allowed to acclimatize for at least 3 weeks before start of the experimental sessions. During this period, the rats were repeatedly handled and allowed habituation to the new environment and to all new procedures, to minimize stress during the experiments.
(§10) After 14 days of triad housing, handling and injection training of the animals, the animals were treated for 5 days with IV injections in experiment 1 and 10 days with a daily subcutaneous injection of the assigned treatment in experiment 2 (Tables 4 and 5). The injections were given at 08.00 every morning. The animals were weighed the day before onset of the treatment and at the last day of injection i.e. on the 5th or 10th day of treatment. Weight was taken at the time of the last injection. […] The results are shown in FIG. 3 (experiment 1) and FIG. 4 (experiment 2), respectively.

[5] = tested on: GABAA receptor; conditions: table 3 in WO 09/142594; cited from earlier work
[6] = tested on: Male Wistar rats; assay: Weight increase in growing male rats, experiment 2 (daily subcutaneous injection, 10 days); type: in vivo, rat; conditions: for reduced weight versus the E+P control rats / reduction in weight compared to vehicle: 10 days
Description: as §8, §9, §10

[7] = biological target: T4, human α1-β2-γ2L GABAA-receptor subtype (Homo sapiens, UniProt P14867+P47870); assay: Patch clamp (Dynaflow) GABA-mediated current response, HEK-293 cells, α1β2γ2L; type: cell-based; conditions: 1 μM steroid; essentially as in Example 2
T4 construct: expressed in transfected cells
From the text: as §1, §2, §3, §4, §5
as §6, with “By using the holding potential of-17 mV and the intracellular solution with low chloride ion concentration the chloride ions flux into the cell when the receptors are activated. All experiments were performed at room temperature (21 to 23° C.). The following standard protocol was used for all experiments.” left out

[8] = 1 mg/kg s.c. + 5 mg/kg progesterone + 10 μg/kg 17β-estradiol
[9] = 5 mg/kg s.c. + 5 mg/kg progesterone + 10 μg/kg 17β-estradiol

T3 sequence (P34903 29-492): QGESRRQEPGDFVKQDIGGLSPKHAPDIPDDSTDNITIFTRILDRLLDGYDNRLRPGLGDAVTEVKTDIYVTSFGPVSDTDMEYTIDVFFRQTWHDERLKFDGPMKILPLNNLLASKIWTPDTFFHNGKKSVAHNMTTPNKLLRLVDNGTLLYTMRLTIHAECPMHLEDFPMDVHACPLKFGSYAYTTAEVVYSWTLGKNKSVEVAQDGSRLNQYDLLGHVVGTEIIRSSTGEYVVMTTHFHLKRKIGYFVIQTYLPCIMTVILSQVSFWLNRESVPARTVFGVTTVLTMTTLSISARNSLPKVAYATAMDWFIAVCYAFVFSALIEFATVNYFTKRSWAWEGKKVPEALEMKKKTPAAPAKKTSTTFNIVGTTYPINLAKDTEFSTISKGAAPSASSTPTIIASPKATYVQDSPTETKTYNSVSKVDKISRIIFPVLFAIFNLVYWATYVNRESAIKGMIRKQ
T3 sequence (P28472 26-473): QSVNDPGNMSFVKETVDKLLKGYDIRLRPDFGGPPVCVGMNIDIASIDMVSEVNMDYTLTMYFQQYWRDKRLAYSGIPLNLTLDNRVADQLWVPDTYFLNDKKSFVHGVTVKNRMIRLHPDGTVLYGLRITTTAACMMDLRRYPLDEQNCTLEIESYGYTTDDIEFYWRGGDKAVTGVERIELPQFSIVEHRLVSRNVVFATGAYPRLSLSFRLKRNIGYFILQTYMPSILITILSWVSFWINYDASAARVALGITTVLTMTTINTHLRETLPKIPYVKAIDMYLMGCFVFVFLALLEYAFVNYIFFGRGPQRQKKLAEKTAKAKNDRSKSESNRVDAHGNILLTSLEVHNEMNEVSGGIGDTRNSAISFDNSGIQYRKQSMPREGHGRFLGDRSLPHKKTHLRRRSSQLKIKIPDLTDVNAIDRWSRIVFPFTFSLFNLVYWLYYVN
T3 sequence (P18507 40-475 partner): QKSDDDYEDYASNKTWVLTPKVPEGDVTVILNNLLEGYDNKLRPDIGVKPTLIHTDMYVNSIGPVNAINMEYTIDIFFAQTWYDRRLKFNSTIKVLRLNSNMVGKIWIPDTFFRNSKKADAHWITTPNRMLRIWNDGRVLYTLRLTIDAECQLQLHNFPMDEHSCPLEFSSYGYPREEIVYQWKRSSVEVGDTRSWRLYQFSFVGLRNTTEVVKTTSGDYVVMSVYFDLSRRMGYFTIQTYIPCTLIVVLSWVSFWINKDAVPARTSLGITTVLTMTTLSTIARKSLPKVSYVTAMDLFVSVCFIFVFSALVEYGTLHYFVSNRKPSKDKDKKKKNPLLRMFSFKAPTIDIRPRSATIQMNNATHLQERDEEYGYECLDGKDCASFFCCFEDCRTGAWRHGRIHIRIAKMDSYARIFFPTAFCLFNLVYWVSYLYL
T1 sequence (P34903 29-492): as the sequence (P34903 29-492) above
T1 sequence (P28472 26-473): as the sequence (P28472 26-473) above
T1 sequence (P18507 40-475 partner): as the sequence (P18507 40-475 partner) above
T2 sequence (P14867 28-456): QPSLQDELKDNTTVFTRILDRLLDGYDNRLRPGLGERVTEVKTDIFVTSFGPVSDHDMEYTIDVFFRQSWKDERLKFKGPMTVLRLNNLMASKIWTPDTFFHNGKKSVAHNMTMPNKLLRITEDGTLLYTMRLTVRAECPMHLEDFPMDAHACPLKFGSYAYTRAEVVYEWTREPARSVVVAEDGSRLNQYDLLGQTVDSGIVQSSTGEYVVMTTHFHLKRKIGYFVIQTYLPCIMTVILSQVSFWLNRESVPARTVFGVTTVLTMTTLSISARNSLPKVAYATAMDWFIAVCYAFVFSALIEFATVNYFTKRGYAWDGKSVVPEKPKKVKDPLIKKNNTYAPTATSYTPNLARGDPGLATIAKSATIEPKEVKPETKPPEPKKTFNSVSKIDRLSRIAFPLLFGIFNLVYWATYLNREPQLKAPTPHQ
T2 sequence (P47870 26-474 isoform P47870-1 limits assumed): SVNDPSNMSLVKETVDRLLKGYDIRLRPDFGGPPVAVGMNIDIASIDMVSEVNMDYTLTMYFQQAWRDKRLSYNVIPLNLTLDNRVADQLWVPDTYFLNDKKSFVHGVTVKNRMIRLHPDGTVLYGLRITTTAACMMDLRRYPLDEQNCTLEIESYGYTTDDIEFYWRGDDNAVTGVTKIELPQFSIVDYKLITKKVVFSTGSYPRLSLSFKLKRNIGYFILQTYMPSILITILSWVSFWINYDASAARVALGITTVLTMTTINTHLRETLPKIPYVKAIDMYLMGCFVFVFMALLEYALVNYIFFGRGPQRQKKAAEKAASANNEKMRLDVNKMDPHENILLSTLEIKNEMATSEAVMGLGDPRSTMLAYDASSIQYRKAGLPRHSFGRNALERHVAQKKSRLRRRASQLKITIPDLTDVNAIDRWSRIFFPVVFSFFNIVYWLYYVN
T2 sequence (P18507 40-475 partner): as the sequence (P18507 40-475 partner) above
T4 sequence (P14867 28-456): as the sequence (P14867 28-456) above
T4 sequence (P47870 26-474 isoform P47870-1 limits assumed): as the sequence (P47870 26-474 isoform P47870-1 limits assumed) above
T4 sequence (P18507 40-475 partner): as the sequence (P18507 40-475 partner) above

## C#C[C@]1(O)CC[C@@]2(C)[C@@H](CC[C@@H]3[C@@H]2CC[C@]2(C)C(=O)CC[C@@H]32)C1 [3α-ethynyl-3β-hydroxy-5α-androstan-17-one]
[1]
  Effect against GABAs agonistic effect, a3β3γ2: −46 ± 1.3%,
[2]
  Antagonism of 100 nM THDOC-enhancement, α1β2γ2: No effect
[3]
  Antagonism of 100 nM THDOC-enhancement, a3β3γ2: −166 + 19.9%,
[4]
  increase in weight versus vehicle treated groups: significantly lower
[4]; in 10% β-cyclodextrine 1 ml/kg, first block of Table 6
  Mean weight increase since arrival. g: 97.43 g
[4]; second block of Table 6 (increase from start of treatment)
  Mean weight increase since arrival. g: 11.86 g
[5]
  effect as a GAMSA or GAMS: no effect as a GAMSA or GAMS
[6]; [8]
  reduced weight versus the E+P control rats: -23.9 ± 4.4 g
  reduction in weight compared to vehicle: -33 ± 4.4 g
[6]; [9]
  reduced weight versus the E+P control rats: -20.4 ± 5.2 g
  reduction in weight compared to vehicle: -29.6 ± 5.2 g
[6]; 10 days s.c. treatment
  weight difference after 10 days of treatment compared to vehicle: over 20%
[7]
  Effect against GABAs agonistic effect, α1β2γ2: −1.9 ± 2.4%

From US20250387409A1, “3-BETA-HYDROXY-3-ALPHA-ETHYL STEROIDS FOR MODULATION OF THE ALPHA-3 SUBTYPE OF THE GABAA RECEPTOR” (priority 2021, published 2025)
